US20160166705A1, “THERAPEUTICAL USE OF TERNARY COMPLEXES OF VALPROIC ACID” (UNIVERSITE PARIS-SUD XI, priority 2009, published 2016)

Key:
[1] = system: leukocyte migration; experiment: Anti-inflammatory tail section assay, leukocyte migration in zebrafish; format: in vivo
Protocol: (§1) All chemicals were firstly dissolved in dimethylsulfoxide, DMSO 99.5% (GC) Sigma-Aldrich), and then diluted in embryo medium E3 (5 mM NaCl, 0.17 mM KCl, 0.33 mM CaCl2, 0.33 mM Mg2SO4, 10-5% methylene blue).
(§2) During the course of the experiments, transgenic zebrafish of the fli-1: EGFP lines were used. Once the fertilized eggs were collected, they were reared in embryo medium E3 in an incubator at 28° C. The 20 hours post fertilization (hpf), 1-phenyl-2-thiourea (PTU) (Sigma-10×(0.03%)) was added to larvae's medium in 1:9 proportion to prevent the formation of melanophores in zebrafish embryos and larvae [Karlsson, J., von Hofsten, J. and Olsson, P. Mar. Biotechnol., 2001, 3, 522-527].
The experimental corroboration of anti-inflammatory activity was done by using a new in vivo test development using zebrafish biological material [Siverio-Mota, D., de Witte, P. et al, 2009, in preparation]. The principal aspects of this new biological assay are the following. First, ten larvae from 4 dpf were used per treated and control groups. In each case, the MTC was used as the assay concentration and indomethacin (Merck Sharp & Dohme) at 30 μM was used as control group. These larvae were placed in wells of a 24 wells tissue culture plate at assay's concentrations in ImL final volume. After one hour, the larvae were anesthetized by immersion in E3 containing tricaine (Westerfield, M., The Zebrafish Book: A Guide for the Laboratory Use of Zebrafish (Brachydanio rerio). 1995, Eugene, Oreg., University of Oregon Press), the complete section of the tail was performed with a sterile scalpel. Once tails were cut, zebrafish were placed again in a 24 wells tissue culture plate at assay's concentrations together with 10 μg/mL solution of lipopolysaccharide to stimulate the leukocyte migration. The temperature of incubation was kept from 20 to 22° C. […]
Anti-inflammatory activity was evaluated following the steps described above. Leukocyte migration to damaged zone (end tail) was observed and evaluated as the parameter determining the anti-inflammatory activity of the tested compounds. […]

[2] = system: Maximal Electroshock (MES) induced seizures; experiment: Maximal Electroshock Seizure (MES) test; format: in vivo; conditions: mice ip 57, 188, or 570 µmg/kg; challenge 0.5 and 4 h after treatment
Protocol: Anticonvulsant activities were determined by the National Institutes of Health-National Institute of Neurological Disorders and Stroke-Antiepileptic Drug Development program for the detection and evaluation of compounds as anticonvulsants agents. Compounds were suspended in polyethylene glycol prior to injection into male Carworth Farms #1 mice. In Phase I studies, identification of anti-convulsant activity, test compounds were given intraperitonealy ([…]) of body mass, and protection against Maximal Electroshock (MES), Minimal Electroshock (MCS) and/or Metrazol (scMET) induced seizures was determined 30 min and 4 h later. All statistics were obtained by Probit analysis.
Maximal electroshock seizure (MES) were elicited with a 60 cycles alternating current of 50 mA, five to seven times that necessary to elicit minimal electroshock seizures, delivered for 0.2 s via corneal electrodes. A drop of 0.9% saline solution was instilled into both eyes prior to application of electrodes in order to prevent death. Abolition of the hind limb tonic extension component of seizure is defined as anticonvulsant activity.

[3] = system: Minimal Clonic Seizure; experiment: Minimal Electroshock / Psychomotor (Minimal Clonic) Seizure test (MCS); format: in vivo, mice; conditions: for anticonvulsant activity against MCS, complex versus individual constituents: mouse, in vivo
Protocol: Anticonvulsant activities were determined by the National Institutes of Health-National Institute of Neurological Disorders and Stroke-Antiepileptic Drug Development program for the detection and evaluation of compounds as anticonvulsants agents. Compounds were suspended in polyethylene glycol prior to injection into male Carworth Farms #1 mice. In Phase I studies, identification of anti-convulsant activity, test compounds were given intraperitonealy (ip) at 57, 188 and 570 milligrams-per-kilogram (mg/kg) of body mass, and protection against Maximal Electroshock (MES), Minimal Electroshock (MCS) and/or Metrazol (scMET) induced seizures was determined 30 min and 4 h later. All statistics were obtained by Probit analysis.
This test was designed to detect compounds that are missed with the MES tests which employ a larger current of 50 mA. The delivery of a less intense electric stimulation which produces less intense stimulation of the CNS (Central Nervous System) and brain inflammation than the MES test, via corneal electrodes of 6 Hz, 32 mA or slightly higher current, for 3 s, is used to produce psychomotor seizures, following instillation of a drop of 0.9% saline solution prior to this application of electric current. Abolition of the visual stereotypic behavior characterized as minimal automatist behaviors, similar to the aura that human patients experience during psychomotor seizure, is defined as antipsychomotor seizure activity.

[4] = system: Metrazol (scMET) induced seizures; experiment: Subcutaneous Metrazol seizure threshold test (scMET), mice; format: in vivo
Protocol: Anticonvulsant activities were determined by the National Institutes of Health-National Institute of Neurological Disorders and Stroke-Antiepileptic Drug Development program for the detection and evaluation of compounds as anticonvulsants agents. Compounds were suspended in polyethylene glycol prior to injection into male Carworth Farms #1 mice. […] All statistics were obtained by Probit analysis.
A dose of Pentylenetetrazol, a potent CNS stimulant, which produces seizures in greater than 97% of treated mice, at 85 mg/kg of body mass, was administered s.c. as a 0.5% saline solution at the posterior neck midline. […] Failure to observe even a threshold seizure, a single episode of clonic spasms of at least five second duration, is defined as anticonvulsant activity.

[5] = system: MET-induced seizures; experiment: Metrazol seizure test, oral treatment of rats; format: in vivo; conditions: rats oral 94 μmol/kg
[6] = Rotating rod test (Rotorod Toxicity), mice; format: in vivo; conditions: for Rotorod Toxicity: challenge 0.5 and 4 h
Excerpt: (§3) This qualitative test was used to evaluate ‘neurotoxicity’, central nervous system stimulation or depression. Depression of CNS activity is a common feature of all antiepileptic drugs. Mice or rats are placed on a 1 inch diameter knurled plastic rod rotating at 6 revolutions per min. Normal mice and rats can remain on a rod rotating at this speed indefinitely. […] It may be attributed to CNS depression due to sedative and/or hypnotic activities, or a state of eminent death, due to medullary paralysis at high doses, a common unwanted side effect caused by high doses of all anticonvulsant drugs.

[7] = Rotating rod test (Rotorod Toxicity), rats; format: in vivo; conditions: rats oral 94 μmol/kg; challenge 0.25, 0.5, 1, 2, and 4 h
Excerpt: as §3

[8] = system: zebrafish larvae; experiment: Toxicological evaluation (Maximum Tolerated Concentration) in zebrafish larvae; format: in vivo; conditions: 100 µM; 24 h exposure of larvae
Protocol: as §1, §2
The Maximum Tolerated Concentration (MTC) was defined as the maximum concentration at which no death or signs of toxicity (in the circulatory system) were observed.
The MTC in the fish water was initially determined by incubating zebrafish larvae resulting from 4 days post fertilization (dpf) with compounds assayed in E3. During 24 hours, 5 larvae of zebrafish per well were placed in a tissue culture in 24 well plates using tested compounds at 10 μM, 30 μM and 100 μM concentration in the medium. Following the 24 h period of incubation, the characteristics of the zebrafish larvae were examined. The MTC were determined in treated groups at 5 dpf after 24 h exposure to the tested drugs.

Molecule: CCCC(CCC)C(=O)[O-].CCCC(CCC)C(=O)[O-].CCCC(CCC)C(=O)[O-].CCCC(CCC)C(=O)[O-].[Cu+2].[Cu+2] [Compound 3, Tetrakis-μ-2-propylpentanoato dicopper(II)]
- percentage of relative leukocyte's migration ([1]; zebrafish larvae, tail section + lipopolysaccharide, tested at MTC, 7 h): 60%

Molecule: CCCC(CCC)C(=O)[O-].CCCC(CCC)C(=O)[O-].[Cu+2].c1cnc2c(c1)ccc1cccnc12 [Compound 4, bis-(2-propylpentanoato)(1,10-phenanthroline)copper(II)]
- anticonvulsant activity, MES challenge [2]: inactive
- TPE (Time to Peak Effect) ([3]; 18 μmol/kg): 2 h
- activity against Minimal Clonic seizure ([3]; 18 mol/kg, challenge times 1, 2, and 4 h): activity was found
- ED50, Minimal Clonic seizure ([3]; mice): 8 µmol/kg
- toxicity observed in MCS test ([3]; mice 188 μmol/kg, 0.25, 0.5, 1, and 2 h): inability to grasp the rotating rod
- deaths in MCS test ([3]; mice 188 μmol/kg, 2 h challenge time): three deaths
- deaths in MCS test ([3]; mice 188 μmol/kg, before the 4 h challenge): all mice died
- activity against Minimal Clonic seizure ([3]; mice 188 μmol/kg, challenge 0.25, 0.5, 1, and 2 h): active
- toxicity in MCS test ([3]; mice 2.25, 4.5, 9, 18, and 36 μmol/kg, 2 h): absence of toxicity
- protection against the Minimal Clonic seizure ([3]; mice 2.25, 4.5, 9, 18, and 36 μmol/kg, challenge at 2 h): dose-related increase in protection
- deaths in MCS test ([3]; mice ip 94 μmol/kg, after the 2 h challenge): two deaths
- protection against Minimal Clonic Seizure ([3]; mice ip 94 μmol/kg, challenge 0.25, 0.5, 1, and 2 h): protected
- toxicity observed in MCS test ([3]; mice ip 94 μmol/kg, most mice): Minimal motor impairment
- deaths in MCS test ([3]; mice ip 94 μmol/kg, prior to challenge at 4 h): All treated mice died
- anticonvulsant activity against MCS, complex versus individual constituents [3]: μmolar level
- deaths in scMET test ([4]; 188 μmol/kg at 4 h challenge and 570 μmol/kg at 0.5 challenge time): deaths occurring without seizure
- anticonvulsant activity, scMET seizure model ([4]; mice 5.7, 19, 57, 188, and 570 μmol/kg, challenge 0.5 and 4 h): inactive
- adverse effects in MET test [5]: continuous seizure activity, death following continuous seizure activity, or tonic seizure extension
- protection against MET-induced seizures ([5]; challenge 0.25, 0.5, 1, 2, and 4 h): not protective
- deaths in Rotorod test ([6]; mice 188 μmol/kg, 4 h challenge time): three deaths
- Rotorod Toxicity ([6]; mice 188 μmol/kg, impaired ability to grasp the rotating rod): observed
- Rotorod Toxicity ([6]; mice 570 μmol/kg): impaired ability to grasp the rotating rod, sedation, and deaths without seizure
- Rotorod Toxicity ([6]; mice ip 5.7, 19, and 57 μmol/kg): not observed
- Rotorod Toxicity [7]: failed to evidence Rotorod Toxicity

Molecule: CCCC(CCC)C(=O)[O-].CCCC(CCC)C(=O)[O-].[Mg+2] [Compound 7]
- toxicity in zebrafish [8]: did not show any toxicity
- anti-inflammatory result, ranking in words ([1]; zebrafish): best result

Molecule: [Cl][Cu][Cl] [copper chloride, reference compound]
- anticonvulsant activity against MCS, complex versus individual constituents [3]: no anticonvulsant of activity

Molecule: COc1ccc2c(c1)c(CC(=O)O)c(C)n2C(=O)c1ccc(Cl)cc1 [indomethacin, reference compound]
- percentage of relative leukocyte's migration ([1]; positive control, indomethacin at 30 μM): 20%

Molecule: c1cnc2c(c1)ccc1cccnc12 [phenanthroline, 1,10-phenanthroline, reference compound]
- anticonvulsant activity against MCS, complex versus individual constituents [3]: no anticonvulsant of activity

Molecule: CCCC(CCC)C(=O)O [sodium valproate, reference compound]
- ED50 ([3]; Mus musculus, same paradigm, sodium valproate): 2800 µmol/kg

Molecule: CCCC(CCC)C(=O)O [valproic acid, 2-propylpentanoic acid]
- anticonvulsant activity against MCS, complex versus individual constituents [3]: much less potency

Molecule: copper acetate [reference compound]
- anticonvulsant activity against MCS, complex versus individual constituents [3]: no anticonvulsant of activity
